From ChEMBL document CHEMBL3808279, “Sequential one-pot synthesis of bis(indolyl)glyoxylamides: Evaluation of antibacterial and anticancer activities” (Bioorg Med Chem Lett, 2016) come the findings set out here.

Series [1] in a line: Stability of compound at pH 7.4 up to 48 hrs by HPLC analysis. It is filed as physicochemical. The following applies: buffer, pH 7.4, 48 h.
Series [2] in a line: Aqueous solubility of compound after 12 hrs by shake-flask method. It is filed as physicochemical. Particulars: water.
Series [3] deals with Staphylococcus aureus. Nature of the series: Antibacterial activity against Staphylococcus aureus after 18 to 24 hrs by microbroth dilution method. The series is classed as functional. Particulars: for MIC: Staphylococcus aureus.
Series [4] relates to Bacillus subtilis. The experiment in a line: Antibacterial activity against Bacillus subtilis after 18 to 24 hrs by microbroth dilution method. It is filed as functional. The following applies: for MIC: Bacillus subtilis.
Series [5] in a line: Cytotoxicity against human C4-2 cells after 48 hrs by MTT assay. It is filed as functional, cell-based. Particulars: LNCaP C4-2, 48 h.
The nature of series [6]: Cytotoxicity against human PC3 cells after 48 hrs by MTT assay. The series is classed as functional, cell-based. Particulars: PC-3, 48 h.
In a further series the test system is HeLa. Nature of the series: Cytotoxicity against human HeLa cells after 48 hrs by MTT assay. It is filed as functional, cell-based.
The subject of a further series is MDA-MB-231. The experiment in a line: Cytotoxicity against human MDA-MB-231 cells after 48 hrs by MTT assay. It is filed as functional, cell-based. Particulars: MDA-MB-231, 48 h.
Series [7] has as its system Pseudomonas putida. The experiment in a line: Antibacterial activity against Pseudomonas putida after 18 to 24 hrs by microbroth dilution method. The series is classed as functional. The following applies: for MIC: Pseudomonas putida.
Series [8] relates to Pseudomonas putida. The experiment in a line: Bactericidal activity against Pseudomonas putida at 3 times MIC after 2 hrs by time-kill analysis. It is filed as functional.
In series [9] the test system is Escherichia coli. Nature of the series: Antibacterial activity against Escherichia coli after 18 to 24 hrs by microbroth dilution method. It is filed as functional. Particulars: for MIC: Escherichia coli.
Series [10] relates to Staphylococcus aureus. Nature of the series: Bactericidal activity against Staphylococcus aureus at 3 times MIC after 2 hrs by time-kill analysis. The series is classed as functional.
The test system of series [11] is Escherichia coli. The experiment in a line: Bactericidal activity against Escherichia coli at 3 times MIC after 2 hrs by time-kill analysis. It is filed as functional.
The nature of series [12]: Cytotoxicity against human BxPC3 cells after 48 hrs by MTT assay. Particulars: BXPC-3, 48 h. It is filed as functional, cell-based.
For series [13], the system named is Pseudomonas putida. Nature of the series: Bactericidal activity against Pseudomonas putida assessed as maximum bactericidal reduction at 3 times MIC after 3 hrs by time-kill analysis. It is filed as functional, organism-based.
Series [14] deals with Escherichia coli. Nature of the series: Bactericidal activity against Escherichia coli assessed as maximum bactericidal reduction at 3 times MIC after 3 hrs by time-kill analysis. The series is classed as functional, organism-based.
Series [15] deals with Bacillus subtilis. The experiment in a line: Bactericidal activity against Bacillus subtilis at 3 times MIC after 2 hrs by time-kill analysis. The series is classed as functional.
A short description of series [16]: Cytotoxicity against human HEK293T cells after 48 hrs by MTT assay. The series is classed as cell-based. Particulars: HEK-293T.
A further series has as its system Klebsiella pneumoniae. Nature of the series: Antibacterial activity against Klebsiella pneumoniae after 18 to 24 hrs by microbroth dilution method. Particulars: for MIC: Klebsiella pneumoniae. It is filed as functional.
Series [17] is described as follows: Stability of compound at pH 4.5 up to 48 hrs by HPLC analysis. The series is classed as physicochemical. The following applies: buffer, pH 4.5, 48 h.
The target of series [18] is Receptor tyrosine-protein kinase erbB-2 (Homo sapiens, UniProt P04626). Nature of the series: Inhibition of c-erbB2 (unknown origin).
For series [19], the target named is Cyclin-dependent kinase 4 (Homo sapiens, UniProt P11802). Nature of the series: Inhibition of CDK4 (unknown origin).
For the next series, the system named is Corynebacterium xerosis. Nature of the series: Antimicrobial activity against Corynebacterium xerosis. The series is classed as functional.
For another series, the system named is Micrococcus luteus. Nature of the series: Antimicrobial activity against Sarcina lutea. The series is classed as functional.
The next series relates to PC-3. Nature of the series: Induction of apoptosis in human PC3 cells assessed as increase in cleaved PARP1 level after 48 hrs by immunoblot analysis. It is filed as functional, cell-based.
In a further series the test system is Pseudomonas aeruginosa. Nature of the series: Antimicrobial activity against Pseudomonas aeruginosa. The series is classed as functional.
A further series deals with A549. The experiment in a line: Cytotoxicity against human A549 cells. It is filed as functional, cell-based.
Another series relates to P388. Nature of the series: Cytotoxicity against mouse P388 cells. The series is classed as functional, cell-based.
Series [20] deals with Escherichia coli. The experiment in a line: Antimicrobial activity against Escherichia coli. It is filed as functional.
The test system of series [21] is Bacillus subtilis. Nature of the series: Antimicrobial activity against Bacillus subtilis. It is filed as functional.

≈ marks a conversion by molar mass, not a printed value. Calls of active or inactive are those of the source. The calls are words filed in the database; no cut-off is given here.

Sequence of Receptor tyrosine-protein kinase erbB-2 (P04626 whole entry): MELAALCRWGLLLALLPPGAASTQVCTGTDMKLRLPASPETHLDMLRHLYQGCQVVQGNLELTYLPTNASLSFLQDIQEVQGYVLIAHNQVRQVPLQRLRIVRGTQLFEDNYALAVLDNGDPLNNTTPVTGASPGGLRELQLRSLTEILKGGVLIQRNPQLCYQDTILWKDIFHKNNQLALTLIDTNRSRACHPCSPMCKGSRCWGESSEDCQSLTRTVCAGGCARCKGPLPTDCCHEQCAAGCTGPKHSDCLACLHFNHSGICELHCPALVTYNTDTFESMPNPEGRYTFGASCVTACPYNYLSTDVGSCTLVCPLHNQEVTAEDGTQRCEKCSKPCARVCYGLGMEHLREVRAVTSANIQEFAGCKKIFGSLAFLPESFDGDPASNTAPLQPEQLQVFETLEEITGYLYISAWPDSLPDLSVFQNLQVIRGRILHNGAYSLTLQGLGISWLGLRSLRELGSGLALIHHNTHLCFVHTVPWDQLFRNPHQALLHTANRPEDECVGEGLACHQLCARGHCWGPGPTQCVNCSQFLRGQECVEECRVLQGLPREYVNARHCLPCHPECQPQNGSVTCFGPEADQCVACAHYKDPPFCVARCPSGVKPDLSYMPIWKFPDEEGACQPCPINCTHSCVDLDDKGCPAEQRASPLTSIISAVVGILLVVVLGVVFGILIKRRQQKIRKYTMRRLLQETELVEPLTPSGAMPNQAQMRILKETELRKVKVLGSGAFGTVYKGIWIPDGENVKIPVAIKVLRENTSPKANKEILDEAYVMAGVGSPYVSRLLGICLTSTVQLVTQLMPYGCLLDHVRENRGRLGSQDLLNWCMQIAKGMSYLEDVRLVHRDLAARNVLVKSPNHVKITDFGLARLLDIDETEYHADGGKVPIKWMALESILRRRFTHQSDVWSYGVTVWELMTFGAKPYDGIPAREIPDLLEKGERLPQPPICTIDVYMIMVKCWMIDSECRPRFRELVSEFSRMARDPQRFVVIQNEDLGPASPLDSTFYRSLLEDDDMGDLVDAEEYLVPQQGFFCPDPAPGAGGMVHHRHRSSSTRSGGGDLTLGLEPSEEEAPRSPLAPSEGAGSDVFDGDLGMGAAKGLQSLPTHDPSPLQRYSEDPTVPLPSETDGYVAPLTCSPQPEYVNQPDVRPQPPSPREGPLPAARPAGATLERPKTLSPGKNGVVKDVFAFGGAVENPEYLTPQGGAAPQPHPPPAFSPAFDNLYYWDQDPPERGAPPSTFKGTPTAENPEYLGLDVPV
Sequence of Cyclin-dependent kinase 4 (P11802 whole entry): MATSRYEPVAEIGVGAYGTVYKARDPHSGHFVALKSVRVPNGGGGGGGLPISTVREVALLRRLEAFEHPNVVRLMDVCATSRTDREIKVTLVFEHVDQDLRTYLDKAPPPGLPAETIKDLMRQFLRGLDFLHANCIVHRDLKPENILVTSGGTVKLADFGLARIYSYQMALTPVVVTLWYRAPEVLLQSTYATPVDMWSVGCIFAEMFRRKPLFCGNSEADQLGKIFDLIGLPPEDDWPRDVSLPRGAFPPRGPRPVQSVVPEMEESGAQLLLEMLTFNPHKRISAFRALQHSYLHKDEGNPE

For the compound `O=C(NCCc1c[nH]c2ccccc12)C(=O)c1c[nH]c2ccc(F)cc12`, the Stability result in series [1] and in [17] was “Stable” in each case. Further, the solubility (thermodynamic) at 12 h in series [2] was 0.3 µg/mL (≈ 0.859 µM). The “inhibition zone (IZ)” value was 17 mm in the series on Staphylococcus aureus [3]; 18 mm with Bacillus subtilis [4]; 18 mm in the series on Pseudomonas putida [7]; 20 mm in the series on Escherichia coli [9]; 18 mm with Klebsiella pneumoniae. Also, the MIC against Staphylococcus aureus [3] is 25 mg/L (≈ 71.6 µM); in the series with Bacillus subtilis [4], more than 12.5 mg/L; in the series with Pseudomonas putida [7] it was 12.5 mg/L (≈ 35.8 µM); against Escherichia coli [9], 12.5 mg/L (≈ 35.8 µM); in the series with Klebsiella pneumoniae, 12.5 mg/L (≈ 35.8 µM). The IC50 (in series [5]; in series [6]; with HeLa; in the series on MDA-MB-231; in series [12]; in [16]) was more than 100 µM each time. Moreover, the Activity with Pseudomonas putida [8] is 80%; in the series with Staphylococcus aureus [10] it was more than 65%; with Escherichia coli [11], 80%; in the series on Bacillus subtilis [15], more than 80%. In addition, the result in the series on Pseudomonas putida [13] and with Escherichia coli [14] was Active.
As to `O=C1N=C(C(=O)c2c[nH]c3ccccc23)N/C1=C\c1c[nH]c2cc(O)ccc12`, the IC50 in series [18] is 20 µM; in [19] it was 33.8 µM.
On to `O=C1N=C(C(=O)c2c[nH]c3ccc(Br)cc23)N/C1=C\c1c[nH]c2ccccc12`, for which the MIC with Corynebacterium xerosis and in the series with Micrococcus luteus was 16 mg/L (≈ 36.9 µM) each time.
With `O=C(NCCc1c[nH]c2ccccc12)C(=O)c1c[nH]c2ccccc12`, the “inhibition zone (IZ)” value was 15 mm in the series on Staphylococcus aureus [3]; 15 mm in the series on Bacillus subtilis [4]; 14 mm with Pseudomonas putida [7]; 15 mm in the series with Escherichia coli [9]; 14 mm with Klebsiella pneumoniae. In addition, the MIC in the series on Staphylococcus aureus [3] was determined as 50 mg/L (≈ 151 µM); against Bacillus subtilis [4] it was 50 mg/L (≈ 151 µM); in the series on Pseudomonas putida [7], 50 mg/L (≈ 151 µM); against Escherichia coli [9] it was 50 mg/L (≈ 151 µM); against Klebsiella pneumoniae, 100 mg/L (≈ 302 µM). In addition, the IC50 is 71.5 µM in [5]; 38.5 µM in series [6]; 48.9 µM with HeLa; 48.7 µM with MDA-MB-231; 64 µM in series [12]; 97.7 µM in series [16]. In addition, in the series on PC-3, the result was Active.
In the case of `CC(c1c[nH]c(N)n1)c1ccc(O)c2[nH]cc(-c3cnc(-c4c[nH]c5cc(Br)ccc45)c(O)n3)c12.O=C(O)C(F)(F)F` (centres undefined) [DRAGMACIDINS], the MIC in the series with Pseudomonas aeruginosa was 62.5 mg/L; with Escherichia coli [20] it was 15.6 mg/L; in the series on Bacillus subtilis [21], 3.1 mg/L. Besides, the IC50 in the series with A549 is 4.5 mg/L; in the series on P388, 1.4 mg/L.
On to `O=C(NCCc1c[nH]c2ccccc12)C(=O)c1c[nH]c2cc(F)ccc12`, for which the IC50 in [5] stood at 46 µM; in series [6] it was 24.1 µM; in the series on HeLa, 22.3 µM; with MDA-MB-231, 21.1 µM; in series [12] it was 29.9 µM; in [16], 69.8 µM. Also, the “inhibition zone (IZ)” value with Pseudomonas putida [7] was found to be 14 mm; with Escherichia coli [9] it was 15 mm; in the series on Klebsiella pneumoniae, 14 mm. Moreover, the figures for the MIC with Pseudomonas putida [7], with Escherichia coli [9] and with Klebsiella pneumoniae were more than 100 mg/L, 100 mg/L (≈ 286 µM) and more than 50 mg/L, respectively. Besides, the result in the series on PC-3 was Active.
